“Also recorded” adds a separate entry of the source.

This experiment relates to Calu-3 monolayers. As to the kind of experiment: Transepithelial short-circuit current (Isc) across unstimulated Calu-3 monolayers. It counts as cell-based, human. The following applies: compound added to mucosal (or serosal) perfusion; L-ascorbic acid 100 μM; dehydroascorbic acid 10, 100 or 300 μM. Put shortly:
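Unstimulated Calu-3 monolayers given compound on the mucosal side at increasing concentrations. Chloride current recorded with serosal-to-mucosal chloride gradient at 0 mV, 2 mV pulses. Forskolin (20 μM, serosal) used for comparison.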

For the molecule `O=C1O[C@H](C(O)CO)C(O)=C1O` (stereo partly drawn) [L-ascorbic acid, L-xyloascorbic acid], the “transepithelial chloride currents in unstimulated tissue” value is “very effectively stimulated transepithelial chloride secretion; also recorded: very effectively stimulated transepithelial chloride currents”.
